Test results as given in the NIST ThermoML archive (doi:10.1021/je1008747).

Settings: Liquid

C[C@H](O)C(=O)[O-].C[N+](C)(C)CCO
Settings | mass density [kg/m3]
293.15 K, 101.33 kPa | 1143.2
298.15 K, 101.33 kPa | 1139.9
303.15 K, 101.33 kPa | 1136.8
308.15 K, 101.33 kPa | 1133.6
312.4 K, 100 kPa | 1130
312.4 K, 10000 kPa | 1133
312.4 K, 20000 kPa | 1137
312.4 K, 30000 kPa | 1140
312.4 K, 40000 kPa | 1143
312.4 K, 50000 kPa | 1146
312.4 K, 60000 kPa | 1150
312.4 K, 70000 kPa | 1152
312.4 K, 80000 kPa | 1155
312.4 K, 90000 kPa | 1157
312.4 K, 100000 kPa | 1160
312.4 K, 110000 kPa | 1163
312.4 K, 120000 kPa | 1166
312.4 K, 130000 kPa | 1168
312.4 K, 140000 kPa | 1171
312.4 K, 150000 kPa | 1173
312.4 K, 160000 kPa | 1176
312.4 K, 170000 kPa | 1178
312.4 K, 180000 kPa | 1181
312.4 K, 190000 kPa | 1183
312.4 K, 200000 kPa | 1185
313.15 K, 101.33 kPa | 1130.5
318.15 K, 101.33 kPa | 1127.3
323.15 K, 101.33 kPa | 1124.2
328.15 K, 101.33 kPa | 1121.1
332.3 K, 10000 kPa | 1121
332.3 K, 20000 kPa | 1124
332.3 K, 30000 kPa | 1128
332.3 K, 40000 kPa | 1131
332.3 K, 50000 kPa | 1134
332.3 K, 60000 kPa | 1137
332.3 K, 70000 kPa | 1140
332.3 K, 80000 kPa | 1143
332.3 K, 90000 kPa | 1146
332.3 K, 100000 kPa | 1149
332.3 K, 110000 kPa | 1152
332.3 K, 120000 kPa | 1154
332.3 K, 130000 kPa | 1157
332.3 K, 140000 kPa | 1160
332.3 K, 150000 kPa | 1162
332.3 K, 160000 kPa | 1165
332.3 K, 170000 kPa | 1168
332.3 K, 180000 kPa | 1170
332.3 K, 190000 kPa | 1172
332.3 K, 200000 kPa | 1175
333.15 K, 101.33 kPa | 1118.1
338.15 K, 101.33 kPa | 1115.1
343.15 K, 101.33 kPa | 1112.2
348.15 K, 101.33 kPa | 1109.3
352.2 K, 10000 kPa | 1109
352.2 K, 20000 kPa | 1113
352.2 K, 30000 kPa | 1116
352.2 K, 40000 kPa | 1120
352.2 K, 50000 kPa | 1123
352.2 K, 60000 kPa | 1126
352.2 K, 70000 kPa | 1129
352.2 K, 80000 kPa | 1132
352.2 K, 90000 kPa | 1135
352.2 K, 100000 kPa | 1138
352.2 K, 110000 kPa | 1141
352.2 K, 120000 kPa | 1144
352.2 K, 130000 kPa | 1146
352.2 K, 140000 kPa | 1149
352.2 K, 150000 kPa | 1152
352.2 K, 160000 kPa | 1154
352.2 K, 170000 kPa | 1157
352.2 K, 180000 kPa | 1159
352.2 K, 190000 kPa | 1162
352.2 K, 200000 kPa | 1165
353.15 K, 101.33 kPa | 1106.4
372.3 K, 10000 kPa | 1098
372.3 K, 20000 kPa | 1101
372.3 K, 30000 kPa | 1105
372.3 K, 40000 kPa | 1109
372.3 K, 50000 kPa | 1112
372.3 K, 60000 kPa | 1115
372.3 K, 70000 kPa | 1118
372.3 K, 80000 kPa | 1122
372.3 K, 90000 kPa | 1125
372.3 K, 100000 kPa | 1128
372.3 K, 110000 kPa | 1130
372.3 K, 120000 kPa | 1133
372.3 K, 130000 kPa | 1136
372.3 K, 140000 kPa | 1139
372.3 K, 150000 kPa | 1142
372.3 K, 160000 kPa | 1144
372.3 K, 170000 kPa | 1147
372.3 K, 180000 kPa | 1150
372.3 K, 190000 kPa | 1152
372.3 K, 200000 kPa | 1155
392.4 K, 10000 kPa | 1086
392.4 K, 20000 kPa | 1090
392.4 K, 30000 kPa | 1094
392.4 K, 40000 kPa | 1098
392.4 K, 50000 kPa | 1101
392.4 K, 60000 kPa | 1105
392.4 K, 70000 kPa | 1108
392.4 K, 80000 kPa | 1111
392.4 K, 90000 kPa | 1114
392.4 K, 100000 kPa | 1117
392.4 K, 110000 kPa | 1121
392.4 K, 120000 kPa | 1124
392.4 K, 130000 kPa | 1126
392.4 K, 140000 kPa | 1129
392.4 K, 150000 kPa | 1132
392.4 K, 160000 kPa | 1135
392.4 K, 170000 kPa | 1138
392.4 K, 180000 kPa | 1140
392.4 K, 190000 kPa | 1143
392.4 K, 200000 kPa | 1146
